Reference: ChEMBL document CHEMBL1127707, “The use of the GRID program in the 3-D QSAR analysis of a series of calcium-channel agonists” (J Med Chem, 1994)

Test: CMR value (relative to BAY K 8644)
Assay type: ADME

| Compound | CMR |
| --- | --- |
| COC(=O)c1c(C)[nH]c(C)c1C(=O)c1ccccc1[S+]([O-])c1ccccc1 (stereo unspecified) | 10.44 |
| COC(=O)c1c(C)[nH]c(C)c1C(=O)c1ccccc1[S+]([O-])Cc1ccccc1 (stereo unspecified) | 10.9 |
| COC(=O)c1c(C)[nH]c(C)c1C(=O)c1ccccc1Oc1ccccc1 | 9.75 |
| COC(=O)c1c(C)[nH]c(C)c1C(=O)c1ccccc1Cc1ccc(N)cc1 | 10.43 |
| COC(=O)c1c(C)[nH]c(C)c1C(=O)c1ccccc1Nc1ccccn1 | 9.75 |
| COC(=O)c1c(C)[nH]c(C)c1C(=O)c1ccccc1Oc1ccc([N+](=O)[O-])cc1 | 10.47 |
| COC(=O)c1c(C)[nH]c(C)c1C(=O)c1ccccc1Cc1ccccc1[N+](=O)[O-] | 10.78 |
| COC(=O)c1c(C)[nH]c(C)c1C(=O)c1ccccc1OCc1ccccc1 | 10.21 |
| COC(=O)c1c(C)[nH]c(C)c1C(=O)c1ccccc1SCc1ccccc1 | 10.87 |
| COC(=O)c1c(C)[nH]c(C)c1C(=O)c1ccc(C)cc1C | 8.01 |
| COC(=O)c1c(C)[nH]c(C)c1C(=O)c1ccc(F)cc1Cc1ccc(F)cc1 | 10.09 |
| COC(=O)c1c(C)[nH]c(C)c1C(=O)c1ccccc1NC1CCCCC1 | 10.06 |
| COC(=O)c1c(C)[nH]c(C)c1C(=O)c1ccccc1Cc1ccc(F)cc1 | 10.08 |
| COC(=O)c1c(C)[nH]c(C)c1C(=O)c1ccc(F)cc1Br | 7.877 |
| COC(=O)c1c(C)[nH]c(C)c1C(=O)c1ccccc1OS(=O)(=O)c1ccc(C)cc1 | 10.62 |
| COC(=O)c1c(C)[nH]c(C)c1C(=O)c1ccccc1Sc1ccc([N+](=O)[O-])cc1 | 11.13 |
| COC(=O)c1c(C)[nH]c(C)c1C(=O)c1ccccc1Nc1ccccc1 | 9.96 |
| COC(=O)c1c(C)[nH]c(C)c1C(=O)c1ccc([N+](=O)[O-])cc1Cl | 8.3 |

| Compound | CMR |
| --- | --- |
| COC(=O)c1c(C)[nH]c(C)c1C(=O)c1ccccc1Cc1ccc([N+](=O)[O-])cc1 | 10.79 |
| COC(=O)c1c(C)[nH]c(C)c1C(=O)c1ccccc1C | 7.58 |
| COC(=O)c1c(C)[nH]c(C)c1C(=O)c1ccccc1F | 7.1 |
| COC(=O)c1c(C)[nH]c(C)c1C(=O)c1ccccc1I | 8.39 |
| COC(=O)c1c(C)[nH]c(C)c1C(=O)c1ccccc1-c1ccccc1 | 9.6 |
| COC(=O)c1c(C)[nH]c(C)c1C(=O)c1ccccc1CCc1ccccc1 | 10.52 |
| COC(=O)c1c(C)[nH]c(C)c1C(=O)c1ccccc1S(=O)(=O)Cc1ccccc1 | 10.93 |
| COC(=O)c1c(C)[nH]c(C)c1C(=O)c1ccccc1C(=O)Oc1ccccc1O | 10.4 |
| COC(=O)c1c(C)[nH]c(C)c1C(=O)c1ccccc1Sc1ccccc1 | 10.4 |
| COC(=O)c1c(C)[nH]c(C)c1C(=O)c1ccccc1CC1CCCCC1 | 10.15 |
| COC(=O)c1c(C)[nH]c(C)c1C(=O)c1ccc(F)cc1Cc1ccccc1 | 10.08 |
| COC(=O)c1c(C)[nH]c(C)c1C(=O)c1ccc(Cl)cc1Cl | 8.07 |
| COC(=O)c1c(C)[nH]c(C)c1C(=O)c1ccccc1 | 7.08 |
| COC(=O)c1c(C)[nH]c(C)c1C(=O)c1ccccc1OC | 7.7 |
| COC(=O)c1c(C)[nH]c(C)c1C(=O)c1ccccc1Cl | 7.58 |
| COC(=O)c1c(C)[nH]c(C)c1C(=O)c1ccccc1C(F)(F)F | 7.6 |
| COC(=O)c1c(C)[nH]c(C)c1C(=O)c1ccccc1Cc1ccccc1 | 10.06 |
| COC(=O)c1c(C)[nH]c(C)c1C(=O)c1ccccc1Br | 7.86 |
